The subject of the experiment is MDR-MTB (rifampicin and isoniazid-resistant MTB strain). Briefly: microbe, parasite or virus in culture. The class given is cell-based, Mycobacterium tuberculosis. To be noted: for MIC: Mycobacterium tuberculosis, read-out: MIC MDR-MTB; for MIC MDR-MTB: isolates resistant to rifampicin (1 μg/mL) and isoniazid (0.2 μg/mL), NA: not active at the concentration range (0.2–64 μg/mL); for fold reduced MDR-MTB activity compared to H37Rv MTB strain: MIC MDR-MTB versus MIC H37Rv.

≈ marks a conversion by molar mass, not a printed value.

Consider `CO[C@H]1/C=C/O[C@@]2(C)Oc3c(C)c(O)c4c(O)c(c(/C=N/N5CCN(C)CC5)c(O)c4c3C2=O)NC(=O)/C(C)=C\C=C\[C@H](C)[C@H](O)[C@@H](C)[C@@H](O)[C@@H](C)[C@H](OC(C)=O)[C@@H]1C` [Rifampicin, reference compound], for which the MIC is ≥ 1 µg/mL. With `CCOC(=O)c1cc(C(=O)c2ccc(C#N)cc2)n2ccccc12` [Compound 2f], the “MIC MDR-MTB” value is reported as “completely abolished the activity”. `CCOC(=O)c1c(C)c(C(=O)c2ccc(Cl)cc2)n2ccccc12` [Compound 3b]: the “MIC MDR-MTB” value was “inactive”. Consider `CCOC(=O)c1c(C(=O)OCC)c2ccccn2c1C(=O)c1ccc([N+](=O)[O-])cc1` [Compound 4c, Diethyl-3-(4-nitrobenzoyl)indolizine-1,2-dicarboxylate], for which the MIC came to 64 µg/mL (≈ 156 µM).

`NNC(=O)c1ccncc1` [Isoniazid, reference compound]: the MIC was ≥ 0.2 µg/mL. Turning to `CCOC(=O)c1c(C)c(C(=O)c2ccc([N+](=O)[O-])cc2)n2ccccc12` [Compound 3d], the “MIC MDR-MTB” value was “inactive”. Still for that read-out and setting: the result for `CCOC(=O)c1cc(C(=O)c2ccc(C)cc2)n2ccccc12` [Compound 2e] reads “completely abolished the activity”. With `CCOC(=O)c1c(C(=O)OCC)c2ccccn2c1C(=O)c1ccc(Cl)cc1` [Compound 4b, Diethyl-3-(4-chlorobenzoyl)indolizine-1,2-dicarboxylate], the MIC was 16 µg/mL (≈ 40 µM). Consider `CCOC(=O)c1c(C(=O)OCC)c2ccccn2c1C(=O)c1ccc(F)cc1` [Compound 4a, Diethyl-3-(4-fluorobenzoyl)indolizine-1,2-dicarboxylate], for which the MIC was 16 µg/mL (≈ 41.7 µM). In the case of `CCOC(=O)c1cc(C(=O)c2ccc([N+](=O)[O-])cc2)n2ccccc12` [Compound 2d], the “fold reduced MDR-MTB activity compared to H37Rv MTB strain” value was 8 fold and the MIC amounted to 64 µg/mL (≈ 189 µM).

With `CCOC(=O)c1c(C)c(C(=O)c2ccc(F)cc2)n2ccccc12` [Compound 3a], the “fold reduced MDR-MTB activity compared to H37Rv MTB strain” value came to 8 fold and the MIC was 32 µg/mL (≈ 98.4 µM).

Source of the values: publication PMC8259857, “Anti-tubercular activity and molecular docking studies of indolizine derivatives targeting mycobacterial InhA enzyme” (Journal of Enzyme Inhibition and Medicinal Chemistry, 2021).
